Test results: US11406605B2, “Therapeutic compositions for treating pancreatic cancer” (Golden Biotechnology Corporation, priority 2017, dated 2022)
Several values for one entry are separate records, joined by “and”; a condition that tells them apart may be missing. Identical values can stand only once.

Key:
[1] = Body weight and hematological parameters in AsPC-1 xenograft study; type: in vivo
Procedure: A. Clinical Observations: Clinical observations of each study animal were performed and at least once daily (including weekends and holidays) for signs of morbidity, mortality and Test Article toxicity. Morbidity includes signs of illness such as, but not limited to, emaciation, dehydration, lethargy, hunched posture, unkempt appearance, dyspnea and urine or fecal staining. All abnormal findings will be recorded.
B. Animal Weights: Individual animal weights were taken one (1) time per week after/before dosing. Weights were recorded first prior to cell injections and continued for the duration of the study.
D. Hematological parameters: Cardiac blood was collected in EDTA for analyzing hematological parameters such as white blood cell count (WBC), red blood cell count (RBC), hemoglobin concentration (HB), hematocrit, mean corpuscular hemoglobin and concentration, platelet distribution width, platelet count, neutrophils, lymphocytes, monocytes, eosinophils. This was determined using hematology counter (Abbott Cell-Dyn 3700, IL).

[2] = 50, 100, 200, 300, 450, and 600 mg-dose levels, given daily for 4 weeks; cited from earlier work
[3] = tested on: AsPC-1 pancreatic cancer cells; assay: Cytotoxicity of test articles (TC50), MTT assay; type: cell-based, Human; conditions: concentration at which cell viability was reduced to 50%
Procedure: The human pancreatic carcinoma cell lines, AsPC-1, PANC-1 and CaPan-2 were seeded 3×10^4 cells per well and cultured in a forty-eight (48) well cell culture dish (growth area 0.95 cm^2 per well). Sixteen (16) hours later, cells were treated Compound 1 alone or Compound 1 with a clinical chemotherapy drug, respectively. After 48 or 72 hours of the treatment, methylthiazoletetrazolium (MTT) assay (supplemental protocol-1) was performed to measure the effect of treatment on the viability of cells during proliferation.
B. Cell Preparation • 1. Remove and discard culture medium. • 2. Briefly rinse the cell layer with 5 mL HBSS. Gently shake and remove the HBSS. • 3. Add 5 mL trypsin-EDTA to 15 cm^2 polystyrene dishes. Incubate 5 mins at 37° C. in a humidified incubator with 95% air/5% CO2 atmosphere. • 4. Add 5 mL of complete growth medium (DMEM medium containing 10% FBS) and aspirate cells by gently pipetting. • 5. Count live cells using the trypan blue exclusion assay (supplemental protocol-2) with a hemocytometer. • 6. For in vitro study, cells will be seeded 3×10^4 cells per well and cultured in a forty-eight (48) wells cell culture dish for sixteen (16) hours until treatment. • 7. Incubate cultures at 37° C.
a. Cytotoxicity of test articles (TC50): AsPC-1 was seeded 3×10^4 cells (counted by Cell counter, LUNA™ Automated Cell Counter or hemocytometer) per well and cultured in a 48 wells cell culture dish. Cells were treated with single article from 400 or 800 μM with serial dilution to 0 μM. After 48 or 72 hours of treated, MTT assay was performed to measure the effect of treatment on the viability of AsPC-1 cells during proliferation. The absorbance at 595 nm was measured using a microplate reader (BioTEK, Synergy™ H1). Article sensitivity curves and TC50 values were calculated using GraphPad Prism 4.0 software.

[4] = tested on: orthotopic PANC-1 human pancreatic cancer xenograft; conditions: 30, 60, and 90 mg/kg, cited from earlier work
[5] = tested on: AsPC-1 subcutaneous xenograft; assay: Antitumor activity on AsPC-1 subcutaneous xenograft model; type: in vivo, nude mice
Procedure: The human pancreatic carcinoma cell line, AsPC-1, was cultured and the cells were injected subcutaneously in a flank of 60 mice. Three days later, the tumors could be felt in the mice. When tumors reached approximately 100-200 mg (mm^3), total of fifty one (51) tumor-bearing mice were randomly selected and sorted into one of six (6) groups. Vehicle (corn oil) treated mice were used as negative controls. Compound 1 combined with gemcitabine or paclitaxel were administered orally once a day and/or I.V. twice a week for four (4) weeks. Tumor measurements were recorded once a week using hand-held calipers and Visualsonic Vevo 2100 image system. Individual mouse weights were taken once a week during dosing. Mice were monitored daily for signs of toxicity and morbidity; any abnormal findings were recorded. The study was terminated four (4) weeks after initiation of drug administration.
D. Human Pancreatic Carcinoma Xenograft Models: • 1. To create the subcutaneous xenograft model, athymic female nude mice (4-6 weeks old) were subcutaneously inoculated with 1×10^7 AsPC-1 cells in 0.1 mL of serum-free DMEM medium containing 20% Matrigel (BD Biosciences, Bedford Mass.). • 2. Tumor-bearing animals were divided into the following 6 groups as table 1. • 3. The mice were monitored for activity and physical condition every day, and the determination of body weight and measurement tumor mass should be done once a week. Tumor image will be photed by digital camera and Visualsonic Vevo 2100 image system. Tumor mass is determined by caliper measurement in two perpendicular diameters of the implant and calculate using the formula […], where “a” stands for the long diameter and “b” is the short diameter.
a. Cell Injections: Mice were injected subcutaneously into the right lateral thorax with 1×10^7 viable human pancreatic carcinoma AsPC-1 Cells. […]
C. Tumor Measurements: The injection site of each animal was monitored one (1) time per week for signs of tumor growth. Throughout the study, the length (a) and width (b) of any tumors developed were measured in millimeters (mm) using vernier calipers, where a is the longer of the two (2) dimensions.
D. Evaluation of drug synergistic effect by tumor growth inhibition (TGI) and tumor inhibitory ratio (TIR): Volume of tumor growth inhibition (TGI) for each group was calculated according to the following formula: Tumor growth inhibition (%)=(1−[T−T0]/[C−C0])×100 • T and T0 are the mean tumor volumes on the end day and day 1 of treatment, respectively, for the experimental groups. […] The tumor inhibitory ratio was calculated by the formula: Tumor inhibitory ratio (%)=[(WControl−WTreated)/WControl]×100% • WTreated and WControl are the average tumor weights of the treated and control mice, respectively. […]

[6] = tested on: metastatic pancreatic cancer; assay: Phase I study of Compound 1 with nab-paclitaxel and gemcitabine, preliminary results; type: in vivo, human; conditions: 600 mg daily dosage of Compound 1 in combination with nab-paclitaxel and gemcitabine; after 3rd cycle (8 weeks treatment); individual patients
Source text: This is a single-arm, open-label, multi-center Phase I study of Compound 1 in combination with nab-paclitaxel and gemcitabine in first line treatment naïve subjects with Stage IV metastatic pancreatic carcinoma.
The first part of the study will follow a 3+3 dose escalation design to determine the MTD or MFD (based on PK and capsules strength) of antroquinonol in combination with standard dose regimen of nab-paclitaxel and gemcitabine. Two dose levels of antroquinonol given TID are planned based on dose escalation data and capsules strengths. The final number of subjects will be based on the number of dose levels investigated and DLTs occurrence. Up to 12 subjects may be treated in this part of the study. A Safety Monitoring Committee (SMC) will be set up for this study to review DLTs and overall safety data and judge the relevance of events to the dose escalation scheme. […]
Treatments Administered: Compound 1 will be administered in 200- to 300-mg doses (planned dose levels), TID, given in 100 mg capsules (resulting a daily dosage of 600 mg to 900 mg). Additional dose levels may be investigated as determined by the study SMC. […]
Efficacy Assessments: The RECIST 1.1 criteria will be used to assess subject response to treatment by determining ORR, DoR, DCR, PFS, PFS 3 months, and PFS 6 months. […] The OS, OS 6 months, and OS 12 months will also be evaluated.

[7] = tested on: advanced pancreatic cancer; conditions: patients with advanced pancreatic cancer; cited from earlier work
[8] = tested on: advanced pancreatic cancer; conditions: people with advanced pancreatic cancer; cited from earlier work
[9] = tested on: metastatic pancreatic adenocarcinoma; conditions: previously untreated metastatic pancreatic adenocarcinoma; cited from earlier work
[10] = cardiac blood, AsPC-1 xenograft study, mean ± SEM, n = 3
[11] = Homo sapiens, ASPC1, AsPC-1 cells, 48 hrs
[12] = Homo sapiens, ASPC1, AsPC-1 cells, 72 hrs
[13] = AsPC-1 xenograft, 28 days treatment

Q: Which “number of blood cells” value ([1]; AsPC-1 xenograft) does the source give for `COC1=C(OC)C(O)C(C/C=C(\C)CC/C=C(\C)CCC=C(C)C)C(C)C1=O` (centres unmarked) [Compound 1, 4-hydroxy-2,3-dimethoxy-6-methyl-5-(3,7,11-trimethyldodeca-2,6,10-trienyl)cyclohex-2-enone] here?
A: Its value is “did not affect number of blood cells except for blood glucose”.

Q: What about the HCT [1, 10] of the same molecule?
A: The HCT was 50.3 ± 1.8%.

Q: What about the HGB [1, 10] of the same molecule?
A: Its HGB is 15.6 ± 1.1 g/dL.

Q: And the MCH [1, 10]?
A: Its MCH is 15.3 ± 0.3 pg.

Q: What about the MCV [1, 10] of the same molecule?
A: Its MCV is 53.6 ± 2.3 fL.

Q: And the RBC [1, 10]?
A: Its RBC is 9.93 ± 1.34 10^12/L.

Q: What about the WBC [1, 10] of the same molecule?
A: Its WBC is 7.34 ± 0.71 10^9/L.

Q: And the safety and tolerability [2]?
A: The safety and tolerability was “generally safe and well tolerated”.

Q: And the CC50 [3, 11]?
A: The CC50 was 58.1 µM.

Q: What about the CC50 [3, 12] of the same molecule?
A: The CC50 was 24 µM.

Q: And the “tolerability, body weight loss” value ([4]; tumor bearing mice)?
A: The value was “tolerated well”.

Q: And the “anti-tumor activity (mean tumor volumes and tumor weights vs vehicle control)” value ([4]; measured 10 days after drug treatment)?
A: Its value is “effective anti-tumor activity”.

Q: What about the “Response, TCR (tumor volume of treatment-to-control ratios)” value [5, 13] of the same molecule?
A: Its value is 0.55.

Q: What about the “TGI (volume of tumor growth inhibition)” value [5, 13] of the same molecule?
A: Its value is 51%.

Q: And the “TIR (tumor weight inhibitory ratio)” value [5, 13]?
A: Its value is 45%.

Q: What about the Tumor weight of excised tumors at the time of sacrifice ([5]; after 28 days of treatments, A 120 mg/kg oral daily, G/P IV twice weekly, mean ± SEM) of the same molecule?
A: Its Tumor weight of excised tumors at the time of sacrifice is 0.21 ± 0.07 g.

Q: And the “patient tumor size after treatment” value [6]?
A: Its value is 84 mm and 39 mm.

Q: What about the “patient tumor size reduced” value [6] of the same molecule?
A: The value was 7.6% and 22%.

Q: With `O=c1[nH]cc(F)c(=O)[nH]1` [Compound 5-FU, 5-Fluorouracil] as the molecule, how does the CC50 [3, 11] read?
A: The CC50 was over 800 µM.

Q: What about the CC50 [3, 12] of the same molecule?
A: The CC50 was over 800 µM.

Q: Which results are given for `C#Cc1cccc(Nc2ncnc3cc(OCCOC)c(OCCOC)cc23)c1` [Erlotinib]?
A: CC50 [3, 11]: > 800 µM; CC50 [3, 12]: > 800 µM

Q: Which results are given for `Nc1ccn([C@@H]2O[C@H](CO)[C@@H](O)C2(F)F)c(=O)n1` [Gemcitabine]?
A: Median progression-free survival (PFS) [7]: 3.3 months; median overall survival (OS) [7]: 6.8 months; CC50 [3, 11]: > 800 µM; CC50 [3, 12]: > 800 µM; improvement in median survival duration [8]: 5 week; Median PFS [9]: 3.7 months; median OS [9]: 6.7 months

Q: With `CCc1c2c(nc3ccc(OC(=O)N4CCC(N5CCCCC5)CC4)cc13)-c1cc3c(c(=O)n1C2)COC(=O)[C@]3(O)CC` [Irinotecan] as the molecule, how does the CC50 [3, 11] read?
A: The CC50 was 221 µM.

Q: What about the CC50 [3, 12] of the same molecule?
A: Its CC50 is 68.3 µM.

Q: Which results are given for `O=C1[O][Pt]2([NH][C@@H]3CCCC[C@H]3[NH]2)[O]C1=O` [Oxaliplatin]?
A: CC50 ([3]; AsPC-1 cells, 48 hrs): 655 µM; CC50 ([3]; AsPC-1 cells, 72 hrs): 57.9 µM

Q: Which CC50 [3, 11] does the source give for `CC(=O)O[C@H]1C(=O)[C@@]2(C)[C@H]([C@H](OC(=O)c3ccccc3)[C@]3(O)C[C@H](OC(=O)[C@H](O)[C@@H](NC(=O)c4ccccc4)c4ccccc4)C(C)=C1C3(C)C)[C@]1(OC(C)=O)CO[C@@H]1C[C@@H]2O` [Paclitaxel] here?
A: Its CC50 is 7.05 µM.

Q: What about the CC50 [3, 12] of the same molecule?
A: Its CC50 is 3.72 µM.
